Results on two molecules are retold here after BindingDB's records for doi:10.1021/jm400050y (University of Michigan, 2013).

The target of assay [1] is Delta-type opioid receptor (Rattus norvegicus, UniProt P33533). In words: Displacement of [3H]diprenorphine from rat DOR expressed in rat C6 cells after 1 hr by liquid scintillation counting analysis. Background: In a radioligand displacement assay an active substance lowers the binding of a labelled ligand.
The target in assay [2] is T1, Mu-type opioid receptor (Rattus norvegicus, UniProt P33535). In words: Agonist activity at rat MOR expressed in rat C6 cells assessed as stimulation of [35S]GTPgammaS binding after 1 hr by liquid scintillation counting analysis.
T1 sequence (P33535 whole entry): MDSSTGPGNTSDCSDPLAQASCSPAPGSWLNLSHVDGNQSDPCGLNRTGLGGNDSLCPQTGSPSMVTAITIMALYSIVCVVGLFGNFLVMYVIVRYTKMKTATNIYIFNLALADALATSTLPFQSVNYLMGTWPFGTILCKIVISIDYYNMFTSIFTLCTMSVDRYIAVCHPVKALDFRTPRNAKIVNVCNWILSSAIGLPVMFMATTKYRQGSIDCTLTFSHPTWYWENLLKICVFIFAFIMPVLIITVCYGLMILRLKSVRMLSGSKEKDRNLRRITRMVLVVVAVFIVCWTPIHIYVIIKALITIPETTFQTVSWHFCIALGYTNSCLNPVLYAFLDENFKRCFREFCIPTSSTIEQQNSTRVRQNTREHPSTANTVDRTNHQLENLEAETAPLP
The target of assay [3] is T1, Mu-type opioid receptor. The assay is described as follows: Displacement of [3H]diprenorphine from rat MOR expressed in rat C6 cells after 1 hr by liquid scintillation counting analysis.

Delta-type opioid receptor, sequence (P33533 whole entry): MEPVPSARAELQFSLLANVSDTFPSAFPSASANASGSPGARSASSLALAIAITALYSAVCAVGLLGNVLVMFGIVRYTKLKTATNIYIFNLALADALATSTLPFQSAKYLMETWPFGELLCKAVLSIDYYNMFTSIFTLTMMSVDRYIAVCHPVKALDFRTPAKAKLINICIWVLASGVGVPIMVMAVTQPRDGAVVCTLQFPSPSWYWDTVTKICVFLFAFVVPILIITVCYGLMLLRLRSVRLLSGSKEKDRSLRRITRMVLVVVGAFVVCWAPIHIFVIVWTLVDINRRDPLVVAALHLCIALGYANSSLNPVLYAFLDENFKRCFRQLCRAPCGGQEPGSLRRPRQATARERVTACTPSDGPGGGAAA

Consider `Cc1cc(O)cc(C)c1C[C@H](N)C(=O)N[C@@H]1CCNc2ccc(CCc3ccccc3)cc21`, for which the figures for the Ki (in assay [1]; on Mu-type opioid receptor [3]) were 8.9 nM and 0.24 nM, respectively. Moreover, on Mu-type opioid receptor [2], the EC50 was determined as 1.1 nM.

`Cc1cc(O)cc(C)c1C[C@H](N)C(=O)N[C@H]1CCNc2ccc(CCc3ccccc3)cc21`: the inhibition constant Ki in assay [1] was found to be 120 nM; at Mu-type opioid receptor [3], 16 nM.

The Ki is a measure of affinity in units of concentration, obtained from inhibition or displacement. Low readings indicate a stronger hold on the target, high ones a looser hold on the target. One may read the EC50 as the concentration needed to bring the measured effect to its halfway point.
